Data taken from US20250034170A1, “SMALL MOLECULE MODULATORS OF GLUCOCEREBROSIDASE ACTIVITY AND USES THEREOF” (Vanqua Bio, Inc., priority 2021, published 2025).

Molecular target: T1, GCase (Homo sapiens, UniProt P04062)
T1 construct: endogenous in cells; host or cells: HeLa cells
T1 sequence (P04062 40-536): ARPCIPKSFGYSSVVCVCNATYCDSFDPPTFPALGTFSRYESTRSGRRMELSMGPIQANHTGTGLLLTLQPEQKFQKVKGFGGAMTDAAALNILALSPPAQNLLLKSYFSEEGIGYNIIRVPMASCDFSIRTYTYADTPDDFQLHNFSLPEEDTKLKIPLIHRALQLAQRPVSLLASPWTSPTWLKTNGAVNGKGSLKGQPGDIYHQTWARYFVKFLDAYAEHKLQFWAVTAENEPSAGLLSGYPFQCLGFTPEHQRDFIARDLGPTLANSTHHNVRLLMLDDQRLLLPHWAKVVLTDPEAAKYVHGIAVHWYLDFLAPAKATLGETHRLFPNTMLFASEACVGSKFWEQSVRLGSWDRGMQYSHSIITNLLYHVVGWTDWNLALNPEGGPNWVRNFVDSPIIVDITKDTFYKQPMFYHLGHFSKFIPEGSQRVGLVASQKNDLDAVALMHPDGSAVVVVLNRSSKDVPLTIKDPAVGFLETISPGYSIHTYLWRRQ
Assay: activation of GCase in a live cell PFB assay in HELA cells
Format: cell-based
Conditions: activation of GCase, EC50 ranges
Protocol: Exemplary compounds were evaluated for activation of GCase in a live cell PFB assay in HELA cells (essentially as described in Ysselstein et al., “LRRK2 kinase activity regulates lysosomal glucocerebrosidase in neurons derived from Parkinson's disease patients” Nature Communications (2019) 10:5570). […] EC50 ranges: A: <10 μM; B: >10-50 μM; C: >50-100 μM; D: >100 μM.

Row | Structure (SMILES) | EC50 [µM]
1 | FC(F)Cn1ncc2ncc(N3CCC4(C3)CN(c3ncc(Cl)cn3)C4)nc21 [Cmpd 438] | 10 to 50
2 | FC(F)Cn1ncc2ncc(N3CCC4(CN(c5cnc(OCC(F)(F)F)nc5)C4)C3)nc21 [Cmpd 439] | 10 to 50
3 | FC(F)Cn1ncc2ncc(N3CCC4(CN(c5ccc(C(F)(F)F)nn5)C4)C3)nc21 [Cmpd 440] | 50 to 100
4 | O=C1CC2(CCN(c3cnc4cnn(CC(F)F)c4n3)CC2)CN1Cc1ccc(OC(F)(F)F)cc1 [Cmpd 441] | < 10
5 | O=C1CC2(CCN(c3cnc4cnn(CC(F)F)c4n3)CC2)CN1Cc1ccc(OC(F)F)cc1 [Cmpd 442] | < 10
6 | O=C1CC2(CCN(c3cnc4cnn(CC(F)F)c4n3)CC2)CN1Cc1ccc(C(F)(F)F)cc1 [Cmpd 443] | < 10
7 | O=C1CC2(CCN(c3cnc4cnn(CC(F)F)c4n3)CC2)CN1Cc1ccc(F)cc1 [Cmpd 444] | < 10
8 | O=C1CC2(CCN(c3cnc4cnn(CC(F)F)c4n3)CC2)CN1Cc1ccc(Cl)cc1 [Cmpd 445] | 10 to 50
9 | O=C1CC2(CCN(c3cnc4cnn(CC(F)F)c4n3)CC2)CN1Cc1ccc(C(F)(F)F)cc1F [Cmpd 446] | < 10
10 | O=C1CC2(CCN(c3cnc4cnn(CC(F)F)c4n3)CC2)CN1Cc1cc(F)ccc1F [Cmpd 447] | < 10
11 | O=C1CC2(CCN(c3cnc4cnn(CC(F)F)c4n3)CC2)CN1Cc1ccc(Cl)c(F)c1 [Cmpd 448] | < 10
12 | O=C1CC2(CCN(c3cnc4cnn(CC(F)F)c4n3)CC2)CN1Cc1ccc(F)c(Cl)c1 [Cmpd 449] | < 10
13 | FC(F)Cn1ncc2ncc(N3CCC4(CN(c5ccc(OC(F)F)nc5)C4)C3)nc21 [Cmpd 450] | 10 to 50
14 | FC(F)Cn1ncc2ncc(N3CCC4(CN(c5ccc(OC(F)(F)F)nc5)C4)C3)nc21 [Cmpd 451] | 10 to 50
15 | FC(F)Cn1ncc2ncc(N3CCC4(CN(c5ccnc(OC(F)F)c5)C4)C3)nc21 [Cmpd 452] | < 10
16 | Fc1cnc(N2CC3(CCN(c4cnc5cnn(CC(F)F)c5n4)C3)C2)cc1C(F)(F)F [Cmpd 453] | 10 to 50
17 | Cc1ncc(N2CC3(CCN(c4cnc5cnn(CC(F)F)c5n4)C3)C2)cn1 [Cmpd 461] | > 100
18 | CCc1ncc(N2CC3(CCN(c4cnc5cnn(CC(F)F)c5n4)C3)C2)cn1 [Cmpd 462] | 10 to 50

Row | Structure (SMILES) | EC50 [µM]
19 | FC(F)(F)c1ncc(N2CC3(CCN(c4cnc5cnn(C6CCCCO6)c5n4)C3)C2)cn1 (centres unmarked) [Cmpd 470] | 10 to 50
20 | FC(F)Cn1ncc2ncc(N3CCC4(CCN(c5ccnc(C(F)(F)F)c5)C4)C3)nc21 (centres unmarked) [Cmpd 472] | > 100
21 | FC(F)(F)Cn1ncc2ncc(N3CCC4(CCN(c5ccnc(C(F)(F)F)c5)C4)C3)nc21 (centres unmarked) [Cmpd 473] | 10 to 50
22 | FC(F)(F)Cn1ncc2ncc(N3CCC4(CC3)CN(c3cc(C(F)(F)F)ccn3)C4)nc21 [Cmpd 477] | < 10
23 | FC(F)Cn1ncc2ncc(N3CCC4(CCN(c5cnc(C(F)(F)F)nc5)C4)C3)nc21 (centres unmarked) [Cmpd 481] | 10 to 50
24 | FC(F)Cn1ncc2ncc(N3CCC4(CCN(c5ccc(C(F)(F)F)nc5)C4)C3)nc21 (centres unmarked) [Cmpd 482] | 10 to 50
25 | FC(F)Cn1ncc2ncc(N3CCC4(CCN(c5ccc(C(F)(F)F)cn5)C4)C3)nc21 (centres unmarked) [Cmpd 483] | 10 to 50
26 | FC(F)Cn1ncc2ncc(N3CCC4(CCN(c5ccnc(C(F)(F)F)n5)C4)C3)nc21 (centres unmarked) [Cmpd 484] | < 10
27 | Cc1nn(CC(F)F)c2nc(N3CCC4(CC3)CN(c3cc(C(F)(F)F)ccn3)C4)cnc12 [Cmpd 490] | < 10
28 | FC(F)Cn1ncc2cnc(N3CCC4(CC3)CN(c3cc(C(F)(F)F)ccn3)C4)nc21 [Cmpd 492] | 10 to 50
29 | O=C1CC2(CCN(c3cnc4cnn(CC(F)F)c4n3)C2)CN1c1ccnc(C(F)(F)F)c1 (centres unmarked) [Cmpd 494] | < 10
30 | Cc1nn(CC(F)F)c2nc(N3CCC4(CC(=O)N(c5ccnc(C(F)(F)F)c5)C4)C3)cnc12 (centres unmarked) [Cmpd 495] | 10 to 50
31 | O=C1CC2(CCN(c3cnc4cnn(CC(F)F)c4n3)C2)CN1c1ccc(C(F)(F)F)cn1 (centres unmarked) [Cmpd 497] | 50 to 100
32 | O=C1CC2(CCN(c3cnc4cnn(CC(F)F)c4n3)C2)CN1c1ccc(C(F)(F)F)nc1 (centres unmarked) [Cmpd 498] | 10 to 50
33 | O=C1CC2(CCN(c3ccnc(C(F)(F)F)c3)C2)CN1c1cnc2cnn(CC(F)F)c2n1 (centres unmarked) [Cmpd 506] | > 100
34 | O=C1CC2(CCN(c3ccc(C(F)(F)F)nc3)C2)CN1c1cnc2cnn(CC(F)F)c2n1 (centres unmarked) [Cmpd 507] | < 10
35 | O=C1CC2(CCN(c3ccc(C(F)(F)F)cn3)C2)CN1c1cnc2cnn(CC(F)F)c2n1 (centres unmarked) [Cmpd 508] | 10 to 50

Second part, the molecule after the results:

Row | EC50 [µM] | Structure (SMILES)
36 | 10 to 50 | Cc1cc(N2CC3(CCN(c4cnc5cnn(C6COC6)c5n4)C3)C2)nc(C(F)(F)F)n1 [Cmpd 454]
37 | 10 to 50 | Cc1nc(N2CC3(CCN(c4cnc5c(C)nn(C6COC6)c5n4)C3)C2)cc(C(F)(F)F)n1 [Cmpd 455]
38 | 10 to 50 | Cc1cc(N2CC3(CCN(c4cnc5cnn(C6COC6)c5n4)CC3)CC2=O)nc(C(F)(F)F)n1 [Cmpd 456]
39 | 10 to 50 | Cc1nc(N2CC3(CCN(c4cnc5cnn(C6COC6)c5n4)CC3)CC2=O)cc(C(F)(F)F)n1 [Cmpd 457]
40 | < 10 | Cc1cc(N2CC3(CCN(c4cnc5c(C)nn(C6COC6)c5n4)CC3)CC2=O)nc(C(F)(F)F)n1 [Cmpd 458]
41 | 10 to 50 | Cc1nc(N2CC3(CCN(c4cnc5c(C)nn(C6COC6)c5n4)CC3)CC2=O)cc(C(F)(F)F)n1 [Cmpd 459]
42 | < 10 | Cc1nn(C2COC2)c2nc(N3CCC4(CN(c5cnc(C(F)(F)F)nc5)C4)C3)ncc12 [Cmpd 460]
43 | 10 to 50 | Cc1cc(N2CC3(CCN(c4cnc5cnn(CC(F)(F)F)c5n4)C3)C2)nc(C(F)(F)F)n1 [Cmpd 463]
44 | < 10 | Cc1cc(N2CC3(CCN(c4cnc5c(C)nn(CC(F)F)c5n4)C3)C2)nc(C(F)(F)F)n1 [Cmpd 464]
45 | > 100 | Cc1cc(N2CC3(CCN(c4cncc(-c5nncs5)n4)C3)C2)nc(C(F)(F)F)n1 [Cmpd 465]
46 | > 100 | Cc1cc(N2CC3(CCN(c4ncc5cnn(CC(F)F)c5n4)C3)C2)nc(C(F)(F)F)n1 [Cmpd 466]
47 | < 10 | Cc1cc(N2CC3(CCN(c4ncc5cnn(CC(F)(F)F)c5n4)C3)C2)nc(C(F)(F)F)n1 [Cmpd 467]
48 | < 10 | Cc1cc(N2CC3(CCN(c4ncc5c(C)nn(CC(F)F)c5n4)C3)C2)nc(C(F)(F)F)n1 [Cmpd 468]
49 | > 100 | FC(F)(F)c1ncc(N2CC3(CCN(c4ncc5cnn(C6CCCCO6)c5n4)C3)C2)cn1 (centres unmarked) [Cmpd 469]
50 | < 10 | Cc1cc(N2CC3(CCN(c4ncc5c(C)nn(C6COC6)c5n4)C3)C2)nc(C(F)(F)F)n1 [Cmpd 471]
51 | > 100 | FC(F)(F)c1cc(N2CCC3(CCN(c4ncc5cnn(C6COC6)c5n4)C3)C2)ccn1 (centres unmarked) [Cmpd 474]
52 | > 100 | Cc1nn(C2COC2)c2nc(N3CCC4(CCN(c5ccnc(C(F)(F)F)c5)C4)C3)ncc12 (centres unmarked) [Cmpd 475]
53 | 50 to 100 | Cc1nn(C2COC2)c2nc(N3CCC4(CCN(c5ccnc(C(F)(F)F)c5)C4)C3)cnc12 (centres unmarked) [Cmpd 476]

Row | EC50 [µM] | Structure (SMILES)
54 | < 10 | FC(F)(F)c1ccnc(N2CC3(CCN(c4ncc5cnn(C6COC6)c5n4)CC3)C2)c1 [Cmpd 478]
55 | > 100 | Cc1nn(C2COC2)c2nc(N3CCC4(CC3)CN(c3cc(C(F)(F)F)ccn3)C4)ncc12 [Cmpd 479]
56 | 10 to 50 | Cc1nn(C2COC2)c2nc(N3CCC4(CC3)CN(c3cc(C(F)(F)F)ccn3)C4)cnc12 [Cmpd 480]
57 | > 100 | Cc1nn(CC(F)F)c2nc(N3CCC4(CCN(c5ccnc(C(F)(F)F)c5)C4)C3)cnc12 (centres unmarked) [Cmpd 485]
58 | 50 to 100 | Cc1nn(CC(F)F)c2nc(N3CCC4(CCN(c5ccnc(C(F)(F)F)c5)C4)C3)ncc12 (centres unmarked) [Cmpd 486]
59 | 10 to 50 | FC(F)(F)c1cc(N2CCC3(CCN(c4cnc5cnn(C6COC6)c5n4)C3)C2)ccn1 (centres unmarked) [Cmpd 487]
60 | > 100 | FC(F)Cn1ncc2cnc(N3CCC4(CCN(c5ccnc(C(F)(F)F)c5)C4)C3)nc21 (centres unmarked) [Cmpd 488]
61 | 10 to 50 | FC(F)(F)Cn1ncc2cnc(N3CCC4(CCN(c5ccnc(C(F)(F)F)c5)C4)C3)nc21 (centres unmarked) [Cmpd 489]
62 | 10 to 50 | Cc1nn(CC(F)F)c2nc(N3CCC4(CC3)CN(c3cc(C(F)(F)F)ccn3)C4)ncc12 [Cmpd 491]
63 | < 10 | FC(F)(F)c1ccnc(N2CC3(CCN(c4cnc5cnn(C6COC6)c5n4)CC3)C2)c1 [Cmpd 493]
64 | 10 to 50 | Cc1nn(CC(F)F)c2nc(N3CCC4(CC(=O)N(c5ccnc(C(F)(F)F)c5)C4)C3)ncc12 (centres unmarked) [Cmpd 496]
65 | < 10 | Cc1nc(N2CC3(CCN(c4cnc5cnn(CC(F)(F)F)c5n4)C3)C2)cc(C(F)(F)F)n1 [Cmpd 499]
66 | > 100 | Cc1nc(N2CC3(CCN(c4ncc5cnn(CC(F)(F)F)c5n4)C3)C2)cc(C(F)(F)F)n1 [Cmpd 500]
67 | > 100 | Cc1nc(N2CC3(CCN(c4ncc5cnn(CC(F)F)c5n4)C3)C2)cc(C(F)(F)F)n1 [Cmpd 501]
68 | < 10 | Cc1nc(N2CC3(CCN(c4ncc5c(C)nn(CC(F)F)c5n4)C3)C2)cc(C(F)(F)F)n1 [Cmpd 502]
69 | < 10 | Cc1nc(N2CC3(CCN(c4cnc5c(C)nn(CC(F)F)c5n4)C3)C2)cc(C(F)(F)F)n1 [Cmpd 503]
70 | 10 to 50 | Cc1nc(N2CC3(CCN(c4ncc5c(C)nn(C6COC6)c5n4)C3)C2)cc(C(F)(F)F)n1 [Cmpd 504]
71 | > 100 | Cc1nc(N2CC3(CCN(c4cncc(-c5nncs5)n4)C3)C2)cc(C(F)(F)F)n1 [Cmpd 505]
